This note sets out measurements from ChEMBL document CHEMBL5143579, “Aulosirazoles B and C from the Cyanobacterium Nostoc sp. UIC 10771: Analogues of an Isothiazolonaphthoquinone Scaffold that Activate Nuclear Transcription Factor FOXO3a in Ovarian Cancer Cells” (J Nat Prod, 2022).

Calls of active or inactive are those of the source. The calls are words filed in the database; no cut-off is given here.

Experiment [1] concerns the target Forkhead box protein O3 (Homo sapiens) (UniProt O43524). Description: Transactivation of FOXO3a in human OVACAR-3 cells assessed as increase in nuclear accumulation of FOXO3a at 1 uM incubated for 24 hrs by western blot analysis. The following applies: OVCAR-3, filed as activator. Type of experiment: cell-based. (Immunoblotting shows a protein as a band on a membrane.)

Experiment [2] shares this target. Description: Transactivation of FOXO3a in human OVACAR-3 cells assessed as decrease in cytosolic concentration of FOXO3a at 1 uM for 3 hrs by western blot analysis. In kind it is cell-based. The following applies: OVCAR-3, filed as activator.
Experiment [3] has the same target. Description: Activation of FOXO3a in human OVACAR-3 cells assessed as decrease in cytosolic localization of FOXO3a at 1 uM incubated for 3 hrs by DAPI staining based immunofluorescence assay. Type of experiment: cell-based. Conditions: OVCAR-3, filed as activator.
For experiment [4] the target is unchanged. Briefly: Activation of FOXO3a in human OVACAR-3 cells assessed as increase in nuclear accumulation of FOXO3a at 1 uM incubated for 3 hrs by DAPI staining based immunofluorescence assay. In kind it is cell-based. The following applies: OVCAR-3, filed as activator.
For a further experiment, the system named is OVCAR-3. Description: Cytotoxicity against human OVCAR-3 cells assessed as inhibition of cell growth incubated for 72 hrs by CellTiter-Blue cell viability assay. Type of experiment: functional, cell-based. Conditions: OVCAR-3, 72 h.
Experiment [5] concerns the target Forkhead box protein O3 (Homo sapiens) (UniProt O43524). Description: Activation of FOXO3a in human OVACAR-3 cells assessed as cytosolic localization of FOXO3a at 2 uM incubated for 3 hrs by DAPI staining based immunofluorescence assay. Type of experiment: cell-based. Conditions: OVCAR-3, filed as activator.
Experiment [6] shares this target. Briefly: Activation of FOXO3a in human OVACAR-3 cells assessed as nuclear accumulation of FOXO3a at 2 uM incubated for 3 hrs by DAPI staining based immunofluorescence assay. In kind it is cell-based. The following applies: OVCAR-3, filed as activator.
Experiment [7] shares this target. Briefly: Transactivation of FOXO3a in human OVACAR-3 cells assessed as nuclear accumulation of FOXO3a at 2 uM incubated for 3 hrs by western blot analysis. In kind it is cell-based. The following applies: OVCAR-3, filed as activator.

Sequence of Forkhead box protein O3 (Homo sapiens) (O43524 whole entry): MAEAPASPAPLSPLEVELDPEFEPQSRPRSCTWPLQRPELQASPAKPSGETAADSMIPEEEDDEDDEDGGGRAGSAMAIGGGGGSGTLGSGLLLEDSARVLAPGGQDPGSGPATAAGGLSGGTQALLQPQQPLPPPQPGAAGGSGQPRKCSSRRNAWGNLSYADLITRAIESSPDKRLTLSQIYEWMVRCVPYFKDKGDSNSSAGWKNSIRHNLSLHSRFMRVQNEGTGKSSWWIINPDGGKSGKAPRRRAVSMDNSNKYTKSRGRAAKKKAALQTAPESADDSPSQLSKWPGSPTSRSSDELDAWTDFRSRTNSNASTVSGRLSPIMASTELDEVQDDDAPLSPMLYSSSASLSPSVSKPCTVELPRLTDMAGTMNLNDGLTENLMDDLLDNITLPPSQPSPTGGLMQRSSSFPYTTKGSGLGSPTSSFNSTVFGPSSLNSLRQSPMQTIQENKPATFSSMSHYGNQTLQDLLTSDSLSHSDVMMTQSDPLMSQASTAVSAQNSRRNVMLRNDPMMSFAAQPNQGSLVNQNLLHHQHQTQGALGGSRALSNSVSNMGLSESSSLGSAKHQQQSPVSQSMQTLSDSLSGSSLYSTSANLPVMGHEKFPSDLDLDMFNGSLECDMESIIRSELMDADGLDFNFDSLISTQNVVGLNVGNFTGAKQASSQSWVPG

On to `COc1nsc2c1C(=O)c1c(O)cccc1C2=O`, for which the outcome in experiment [1], in experiment [2], in experiment [3] and in experiment [4] was Active. Further, the 50% inhibitory concentration (IC50) (commonly the point on the concentration scale where inhibition reaches its midpoint) in the experiment with OVCAR-3 is 301 nM.

Regarding `COc1nsc2c1C(=O)c1ccccc1C2=O`, in the experiment with OVCAR-3, the 50% inhibitory concentration (IC50) stood at 600 nM.

On to `COc1nsc2c1C(=O)c1c(O)ccc(C(=O)O)c1C2=O`, for which, in the experiment with OVCAR-3, the IC50 turned out to be 3030 nM.

For `O=c1cc(N2CCOCC2)oc2c(-c3ccccc3)cccc12` [LY-294002], the outcome in experiment [5], in experiment [6] and in experiment [7] was Active. For the same molecule, the IC50 in the experiment with OVCAR-3 turned out to be 9190 nM.
